# Test results taken from patent US9926529B2, “Derivation of neural stem cells and dopaminergic neurons from human pluripotent stem cells” (International Stem Cell Corporation, priority 2012, dated 2018).
# Key:
# [1] = test system: hPSC-NSC derived DA neurons; assay: FACS analysis of derived DA neurons stained for TH; assay type: cell-based, human; settings: after 30 days of differentiation with guggulsterone
# Method: To obtain DA neurons, hPSC-NSC were first primed into DA precursors with 100 ng/mL FGF8 and 2 μM Purmorphamine for 7 days and then used to screen for small molecules that induce terminal dopaminergic differentiation (FIG. 6A). The DA precursors were plated at 2000 cells/well of a 96-well plate and treated with a small molecule library (Tocris 1120 biologically active compounds) at 2.5 μM for two weeks (FIG. 6A). Dopaminergic differentiation was assessed by neurite outgrowth and ELISA analysis for dopamine release (FIG. 6A). From this screen, guggulsterone (GS), a naturally occurring steroid, was identified among the best inducers of dopaminergic differentiation (FIG. 6A). After 30 days of differentiation, GS-treated neurons appeared mature with elaborate neurite extensions. […] Spontaneous action potentials were recorded in whole cultures of GS-treated neurons using a microelectrode array (MEA) system (FIG. 6J). […]
# For flow cytometry analysis, 1 million cells per sample were harvested with Accutase, washed with PBS, and fixed with 4% paraformaldehyde for 30 min at room temperature. […] The samples were run on a Becton Dickinison FACSCalibur™ 4-color flow cytometer and the data was analyzed with CellQuest Pro™ software (v6.0). […]
# hPSC-derived DA neurons = assay: Whole cell patch clamp electrophysiology of GS-treated neurons; assay type: cell-based, human; settings: current clamp, after 90 days of GS treatment
# Method: Whole cell patch clamp electrophysiology methods. For electrophysiological recordings, the cells were transferred to a recording chamber mounted on an inverted Olympus microscope. During the recordings the temperature was maintained at 31-32° C., and the cells perfused at constant flow of 1 ml/min. with 150 mM NaCl, 4 mM KCl, 1.8 mM CaCl2, 1 mM MgCl2, 10 mM HEPES, 10 mM Glucose at pH 7.30 and 315 mOsm. Whole-cell recordings were obtained using borosilicate electrodes with tip resistance of 2-3 MΩ, filled with 130 mM K-Gluconate, 5 mM NaCl, 5 mM KCl, 10 mM HEPES, 20 mM Sucrose, 0.3 mM EGTA, 3 mM MgATP at pH 7.30 and 290 mOsm. Data were acquired using an HEKA EPC-10 digitizer/amplifier. Once whole-cell access was achieved the resting membrane potential was immediately recorded; the cells were then allowed to equilibrate for 3-5 min. From a resting membrane potential of −70 mV, the cells were then depolarized in current-clamp mode with 200 ms current injections, delivered at 0.2 Hz., and with increasing amplitude from 50 pA to up to 1000 pA to induce action potentials. The presence of inward or outward currents was determined by applying a voltage ramp. Cells with unstable recording configuration or for which the series resistance became larger than 15MΩ were excluded from the study. Twenty different cells were recorded and action potentials were obtained from 7 patch-clamped cells.
structure (smiles),measurement,setting,value
C/C=C1\C(=O)C[C@H]2[C@@H]3CCC4=CC(=O)CC[C@]4(C)[C@H]3CC[C@]12C [Guggulsterone],cells gated TH positive (FACS),[1],more than 97%
same,patch-clamped cells in which action potentials were found,hPSC-derived DA neurons,7 out of 20
